Experimental findings from ChEMBL document CHEMBL1649461, “Fitness cost of VanA-type vancomycin resistance in methicillin-resistant Staphylococcus aureus” (2009) are described below.

≈ marks a conversion by molar mass, not a printed value.

What all share (type): functional
Assay [1] has as its system Staphylococcus aureus. In words: Antimicrobial activity against VanA-type vancomycin-resistant and methicillin-resistant Staphylococcus aureus 1 by broth dilution method.
Assay [2] relates to Staphylococcus aureus. The assay can be described thus: Antimicrobial activity against VanA-type vancomycin-resistant and methicillin-resistant Staphylococcus aureus 5 by broth dilution method.
Assay [3] deals with Staphylococcus aureus. In words: Antimicrobial activity against VanA-type vancomycin-resistant and methicillin-resistant Staphylococcus aureus 6 by broth dilution method.
For assay [4], the system named is Staphylococcus aureus. In words: Antimicrobial activity against methicillin-resistant Staphylococcus aureus HIP11713 by broth dilution method.

With `CN[C@H](CC(C)C)C(=O)N[C@H]1C(=O)N[C@@H](CC(N)=O)C(=O)N[C@H]2C(=O)N[C@H]3C(=O)N[C@H](C(=O)N[C@H](C(=O)O)c4cc(O)cc(O)c4-c4cc3ccc4O)[C@H](O)c3ccc(c(Cl)c3)Oc3cc2cc(c3O[C@@H]2O[C@H](CO)[C@@H](O)[C@H](O)[C@H]2O[C@H]2C[C@](C)(N)[C@H](O)[C@H](C)O2)Oc2ccc(cc2Cl)[C@H]1O` [VANCOMYCIN], the results for the MIC against Staphylococcus aureus [1], against Staphylococcus aureus [2] and in the assay with Staphylococcus aureus [3] were 2050 µg/mL (≈ 1410 µM), 1020 µg/mL (≈ 707 µM) and 1020 µg/mL (≈ 707 µM), respectively.
`CC(=O)N[C@@H]1[C@H](Oc2c3cc4cc2Oc2ccc(cc2Cl)[C@@H](O[C@@H]2O[C@@H](CO)[C@@H](O)[C@H](O)[C@@H]2NC(C)=O)[C@@H]2NC(=O)[C@H](NC(=O)[C@@H]4NC(=O)[C@H]4NC(=O)[C@@H](Cc5ccc(c(Cl)c5)O3)NC(=O)[C@H](N)c3ccc(O)c(c3)Oc3cc(O)cc4c3)c3ccc(O)c(c3)-c3c(O[C@H]4O[C@H](CO)[C@@H](O)[C@@H](O)[C@@H]4O)cc(O)cc3[C@@H](C(=O)O)NC2=O)O[C@@H](CO)[C@@H](O)[C@@H]1O`: the minimum inhibitory concentration (MIC) is 1 µg/mL (≈ 0.566 µM) with Staphylococcus aureus [4], 256 µg/mL (≈ 145 µM) against Staphylococcus aureus [1], 64 µg/mL (≈ 36.2 µM) against Staphylococcus aureus [2] and 128 µg/mL (≈ 72.4 µM) in the assay on Staphylococcus aureus [3].
